# Results taken from article PMC9775652, “Concomitant Administration of Red Ginseng Extract with Lactic Acid Bacteria Increases the Plasma Concentration of Deglycosylated Ginsenosides in Healthy Human Subjects” (Biomolecules, 2022).
# Assays:
# [1] = test system: LAB; experiment: In vitro RGE fermentation with LAB; format: in vitro ADME; details: RGE incubated with LAB (1 billion CFU) for 7 days at 37 °C; result in words
# Description: To identify the effects of LAB on ginsenoside metabolism, an in vitro fermentation study was performed according to the method of Jeon et al., with slight modifications. Briefly, RGE (10 mL, 1 pouch) and 2 g LAB (containing 1 billion CFU) were suspended in 10 mL autoclaved MRS broth (550 mg broth powder dissolved in 10 mL water). For the 15 ginsenosides, individual ginsenosides (10 μM each) and 2 g of LAB were suspended in 20 mL of autoclaved MRS broth (550 mg broth powder dissolved in 20 mL water). The mixture was incubated for 7 days in a shaking incubator at 37 °C and 300 rpm, and a 0.1 mL aliquot of the incubation mixture was collected on days 0, 3, 5, and 7. The incubation medium was diluted 100-fold with distilled water and stored at −80 °C to analyze ginsenosides using the LC-MS/MS system.
# To measure the metabolic activity of ginsenosides, the formation rate of ginsenosides (pmol/day) was calculated by dividing the slope of the regression line by the amount of deglycosylated ginsenosides versus the incubation time plot by the initial concentration of individual ginsenosides.
# [2] = Transport (permeability) of ginsenosides in CaCo-2 cell monolayers; format: in vitro ADME; details: human, Caco-2, Efflux ratio (ER)
# Description: CaCo-2 cells (passage no 41–43) were seeded onto collagen-coated permeable support (1.0 μm pore size) in a 24-well plate at a density of 2.5 × 10^4 cells/insert and cultured for 21 days in Dulbecco’s modified eagle’s medium supplemented with 10% fetal bovine serum, 1% non-essential amino acids, and 1% penicillin-streptomycin at 37 °C in a humidified atmosphere (5% CO2/95% air). After confirming that the transepithelial electrical resistance (TEER) of the CaCo-2 cell monolayer was over 400 Ω·cm^2, Apical to basal (A to B) transport and B to A transport of ginsenosides using 50 µM, GRb1 was investigated as previously described. The same permeability study was performed using 50 µM GRb2, GRc, GRd, GRg3, GRh2, GF2, CK, PPD, GRe, GRf, GRg1, GRh1, GF1, or PPT.
# (§1) For the transport study of ginsenosides in CaCo-2 cells and LLC-PK1-P-gp cells, the ginsenoside transport rate in the A to B or B to A directions was calculated from the slope of the regression line from the mean transported amounts versus time plot. The apparent permeability (Papp) was calculated using Equation (1). (1) Papp (×10^−6 cm/s)=transport rate (nmol/min)/concentration(μM)×area(cm^2)×60s
# (§2) The efflux ratio was calculated by dividing the Papp of ginsenosides from the B to A direction by that from the A to B direction.
# [3] = Pharmacokinetic study of ginsenosides in healthy humans after repeated oral RGE with or without LAB; format: in vivo, human; details: male, human, in vivo, po
# Description: A single-sequence study consisting of two periods was conducted on five healthy male subjects (body weight > 50 kg and age > 19 years) for 29 days. During the first period of the study (RGE treatment group), three pouches of RGE (30 mL, 104.1 mg of total ginsenosides) were administered to 5 subjects once daily for 14 days. On the 14th day, the subjects were admitted to the Clinical Trial Center of KNUH at 7 AM and underwent the last RGE administration at approximately 8–9 AM. Blood samples (approximately 3 mL) were collected at 0, 4, 6, 8, 10, 12, 13, 14, and 24 h after the last dose. A saline-locked angiocatheter was placed on the forearm of each subject’s hand. After discarding 1 mL of blood derived from the catheter, 3 mL of blood was drawn into a vacutainer tube containing heparin and centrifuged at 3000× g for 10 min. The supernatant plasma samples were stored at −80 °C until ginsenoside analysis.
# In the second half of the study (RGE + LAB treatment group), 3 pouches of RGE (30 mL, 104.1 mg of total ginsenosides) and 1 pouch of LAB (1 billion CFU/2 g) were co-administered once daily for 14 days. On the […], the subjects were admitted to the Clinical Trial Center of KNUH at 7 AM and received the last red ginseng dose at approximately 8–9 AM. Blood samples (approximately 3 mL) were withdrawn at 0, 4, 6, 8, 10, 12, 13, 14, and 24 h intervals after the last dose and centrifuged at 3000× g for 10 min; the supernatant plasma samples were stored at −80 °C.
# Briefly, to analyze GRb1, GRb2, GRc, GRd, GRe, GRf, GRg1, GRg3, GF1, and GF2, 400 μL of an internal standard (IS; 0.05 ng/mL berberine in methanol) was added to 100 μL of plasma. The mixture was vortexed for 15 min and centrifuged at 16,000× g for 5 min. After centrifugation, 400 μL of the supernatant was evaporated using a speed-dry vacuum concentrator (Christ, Osterode am Harz, Germany). The residue was reconstituted using 200 μL of 70% methanol supplemented with 0.1% formic acid, and a 10 μL aliquot was injected into the LC-MS/MS system. Chromatographic separation was performed using a Polar RP column (150 × 2.0 mm, 4.0 μm particle size; Phenomenex, Torrance, CA, USA) using a mobile phase consisting of 0.1% formic acid in water (phase A) and 0.1% formic acid in methanol (phase B). The following elution gradient was used: 69% of phase B for 0–2.0 min, 69–85% of phase B for 2.0–4.0 min, and 85–69% of phase B for 6.0–6.5 min. The flow rate was 0.27 mL/min.
# The mixture was vortexed for 10 min and centrifuged at 16,000× g for 5 min. After centrifugation, the samples were frozen at −80 °C for 4 h. The upper layer was transferred to a clean tube and evaporated. The residue was reconstituted using 200 μL of 80% methanol supplemented with 0.1% formic acid, and a 10 μL aliquot was injected into the LC-MS/MS system. Chromatographic separation was performed using a Luna C18 column (150 × 2.0 mm, 3.0 μm particle size; Phenomenex, Torrance, CA, USA) and using a mobile phase consisting of water containing 0.1% formic acid: methanol containing 0.1% formic acid = 8:92 (v/v) at a flow rate of 0.15 mL/min.
# The quantification of ginsenosides was carried out using multiple reaction monitoring in positive ionization mode, as previously described.
# Finally, pharmacokinetic parameters were calculated using non-compartmental methods (WinNonlin version 5.1; Pharsight Co., Certara, NJ, USA). Statistical analysis was performed by Student’s t-test to compare the two groups using IBM SPSS Statistics for Windows (version 25.0; IBM Corp., Armonk, NY, USA). Differences were considered significant at p < 0.05.
# [4] = target: T1, P-gp (Homo sapiens, UniProt P08183); experiment: Transport of ginsenosides in P-gp-overexpressing LLC-PK1-P-gp cells; format: in vitro ADME; details: pig
# T1 construct: host or cells: LLC-PK1-P-gp cells (passage no. 25–28)
# T1 sequence (P08183 whole entry): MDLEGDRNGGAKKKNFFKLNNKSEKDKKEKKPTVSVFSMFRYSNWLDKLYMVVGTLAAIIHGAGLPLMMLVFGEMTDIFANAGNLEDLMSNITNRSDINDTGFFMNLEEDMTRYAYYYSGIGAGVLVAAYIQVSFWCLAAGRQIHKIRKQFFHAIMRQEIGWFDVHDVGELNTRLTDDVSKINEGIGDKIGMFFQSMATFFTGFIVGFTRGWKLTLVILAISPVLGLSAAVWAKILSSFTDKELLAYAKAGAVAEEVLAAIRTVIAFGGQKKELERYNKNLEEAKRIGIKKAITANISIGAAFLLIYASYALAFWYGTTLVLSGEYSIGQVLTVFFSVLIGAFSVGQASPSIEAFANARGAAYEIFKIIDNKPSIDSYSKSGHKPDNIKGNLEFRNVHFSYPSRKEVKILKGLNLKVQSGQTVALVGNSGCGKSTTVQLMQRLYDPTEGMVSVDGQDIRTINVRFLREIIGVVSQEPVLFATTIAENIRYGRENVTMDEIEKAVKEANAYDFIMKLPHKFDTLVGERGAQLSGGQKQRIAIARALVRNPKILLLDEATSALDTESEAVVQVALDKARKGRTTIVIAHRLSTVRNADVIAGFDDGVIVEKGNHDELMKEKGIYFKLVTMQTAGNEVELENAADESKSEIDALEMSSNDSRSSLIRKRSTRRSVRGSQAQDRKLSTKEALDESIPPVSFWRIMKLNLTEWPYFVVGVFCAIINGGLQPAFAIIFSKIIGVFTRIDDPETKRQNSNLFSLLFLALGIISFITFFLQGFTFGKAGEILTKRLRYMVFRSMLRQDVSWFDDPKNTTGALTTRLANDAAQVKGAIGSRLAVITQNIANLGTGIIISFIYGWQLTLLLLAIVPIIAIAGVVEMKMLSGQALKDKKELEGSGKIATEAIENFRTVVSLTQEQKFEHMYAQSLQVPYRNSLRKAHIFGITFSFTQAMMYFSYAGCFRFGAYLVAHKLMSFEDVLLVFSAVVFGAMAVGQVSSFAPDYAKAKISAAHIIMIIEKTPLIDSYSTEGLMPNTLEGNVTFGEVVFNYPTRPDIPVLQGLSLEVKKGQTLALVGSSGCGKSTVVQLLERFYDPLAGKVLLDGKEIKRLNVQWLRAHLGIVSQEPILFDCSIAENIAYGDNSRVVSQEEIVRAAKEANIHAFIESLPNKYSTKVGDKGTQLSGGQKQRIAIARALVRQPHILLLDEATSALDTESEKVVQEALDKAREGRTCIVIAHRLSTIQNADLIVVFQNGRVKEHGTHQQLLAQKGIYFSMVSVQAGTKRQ
# Description: LLC-PK1-P-gp cells (passage no. 25–28) were seeded onto collagen-coated permeable support (1.0 μm pore size) in 24-well plates at a density of 2.5 × 10^4 cells/insert and grown for 5 days with TEER values of over 500 Ω·cm^2 [24]. The A to B transport and B to A transport of GRg3, GRh2, CK, PPD, GRg1, GRh1, and PPT (20 μM each) were measured as previously described. The concentration dependency in the B to A transport of GRh2, CK, PPD, and PPT was measured in the range of 6.25–200 μM for GRh2, CK, PPD, and PPT.
# as §1, §2
# To measure the kinetic parameters of the concentration dependence on the P-gp-mediated ginsenoside efflux, the ginsenoside transport rate in the B to A direction (ν) versus the ginsenoside concentration (S) plot was fitted in the Michaelis–Menten Equation (2) using Sigma Plot (version 12.0, Systat Software Inc. Chicago, IL, USA). (2) ν=Vmax×S/Km+S
# [5] = rat, in vivo, po; cited from earlier work
# [6] = design: method as in PMID 34575573; details: mice, LAB supplementation (Lacto-fit) for two weeks; cited from earlier work
smiles,measurement,setting,value
"CC(C)=CCCC(C)(O)C1CCC2(C)C1C(O)CC1C3(C)CCC(O)C(C)(C)C3C(O)CC12C (stereo not drawn) [PPT, 20(s)-protopanaxatriol]",Relative abundance / metabolic activity following fermentation of RGE with LAB,[1],significantly increased
same,efflux ratio at 50 µM,[2],2.7
same,AUC,[3]; 104.1 mg,59.9 ± 49.2 ng·h/mL
same,Cmax,[3]; Cmax,9.5 ± 4.8 ng/mL
same,MRT,[3]; MRT,19.4 ± 10.5 h
same,Tmax,[3]; Tmax,17.4 ± 17.4 h
same,Papp A→B at 20 μM,[4]; LLC-PK1,3.73 ± 0.56 ×10⁻⁶ cm/s
same,Papp B→A at 20 μM,[4]; LLC-PK1,10 ± 1.1 ×10⁻⁶ cm/s
same,efflux ratio at 20 μM,"[4]; LLC-PK1, ER",2.7
same,CLint (intrinsic clearance),[4]; llc-pk1,231 µL/min
same,Oral BA,[5],3.7%
same,AUC fold increase with LAB supplementation compared to control groups,[6],1.63 fold
